Test results reported in patent US20220315554A1, “COMPOUNDS COMPRISING A […] LIGAND AND USE THEREOF” (priority 2019, published 2022).
Numbered stars: 1 amine (or outer) side, 2 acyl side, 3 side chain; on linkers, the order of the positions; unused ones are H or OH. Bridge positions count the residues as written; N and C are the ends. Square brackets hold non-standard residues; d marks the D form. Peptide text beside a SMILES is read from it. * marks the point of attachment. TBMB(SCH2CH2NH-DOTA) = O=C(O)CN1CCN(CC(=O)O)CCN(CC(=O)NCCSCc2cc(C[*:1])cc(C[*:2])c2)CCN(CC(=O)O)CC1; NH(CH2)3NH(O2Oc(DOTA)) = O=C(O)CN1CCN(CC(=O)O)CCN(CC(=O)NCCOCCOCC(=O)NCCCN*)CCN(CC(=O)O)CC1; NH(CH2)3NHDOTA = O=C(O)CN1CCN(CC(=O)O)CCN(CC(=O)NCCCN*)CCN(CC(=O)O)CC1; Pyridine(3,5-bisCH2) = c1ncc(C[*:2])cc1C[*:1]; mXylylene = c1cc(C[*:1])cc(C[*:2])c1; Hexanoyl = CCCCCC(=O)*; Sar = CNCC(=O)O

Experiments:
[1] = target: T1, FAP-expressing human WI-38 fibroblasts (Homo sapiens, UniProt Q12884); experiment: Competitive FACS binding assay; conditions: pIC50 Category (FACS), competition with 3 nM Cy5-labeled compound, 4° C., 1 hour
T1 construct: FAP-expressing human WI-38 fibroblasts (ECACC) were cultured in EMEM; host or cells: WI-38 human fibroblasts
T1 sequence (Q12884 1-760): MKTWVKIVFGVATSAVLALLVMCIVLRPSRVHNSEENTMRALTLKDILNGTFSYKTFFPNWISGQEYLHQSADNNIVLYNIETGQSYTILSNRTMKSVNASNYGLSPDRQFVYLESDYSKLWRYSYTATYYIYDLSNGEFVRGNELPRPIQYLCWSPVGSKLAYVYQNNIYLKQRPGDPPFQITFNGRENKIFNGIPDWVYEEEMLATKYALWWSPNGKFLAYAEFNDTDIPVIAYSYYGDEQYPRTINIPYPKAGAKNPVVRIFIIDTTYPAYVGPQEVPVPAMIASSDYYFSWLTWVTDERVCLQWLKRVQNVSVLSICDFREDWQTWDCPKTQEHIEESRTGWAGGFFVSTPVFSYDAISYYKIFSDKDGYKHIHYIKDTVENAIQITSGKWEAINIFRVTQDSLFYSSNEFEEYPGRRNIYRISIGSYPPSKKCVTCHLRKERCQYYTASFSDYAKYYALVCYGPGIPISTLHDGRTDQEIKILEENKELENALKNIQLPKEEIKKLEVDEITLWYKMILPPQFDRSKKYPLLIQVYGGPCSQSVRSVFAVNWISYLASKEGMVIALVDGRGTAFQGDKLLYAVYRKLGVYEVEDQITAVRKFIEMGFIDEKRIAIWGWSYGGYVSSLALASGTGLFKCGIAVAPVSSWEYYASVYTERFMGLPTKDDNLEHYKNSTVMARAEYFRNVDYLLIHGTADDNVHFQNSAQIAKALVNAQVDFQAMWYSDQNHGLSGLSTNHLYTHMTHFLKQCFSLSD
Experimental: Cells were analyzed in an Attune NxT flow cytometer. […]

Human recombinant FAP = target: T2, Human recombinant FAP (Homo sapiens, UniProt Q12884); experiment: FRET-based FAP protease activity assay; type: biochemical; design: purchased R&D systems 3715-SE; conditions: pIC50 Category (Activity), FRET substrate, 37° C.
T2 sequence (Q12884 1-760): T1 sequence (Q12884 1-760)

Structure (SMILES)	IC50 ([1]; WI-38 fibroblasts) [nM]	IC50 (Human recombinant FAP; recombinant human FAP) [nM]	IC50 [1] [nM]	IC50 (Human recombinant FAP) [nM]
CCCCCC(=O)N[C@H]1CSCc2cc(CSCCNC(=O)CCC(=O)NCCCOCCOCCOCCCNC(=O)[C@H](CS)NC(=O)[C@H](CC(=O)O)NC(=O)[C@@H](N)CC(=O)O)cc(c2)CSC[C@@H](C(=O)O)NC(=O)[C@H](Cc2ccccc2)NC(=O)[C@H](CCC(N)=O)NC(=O)[C@H]([C@@H](C)O)NC(=O)[C@@H]2CCCN2C(=O)[C@@H]2CCCN2C1=O [3BP-4302, Hex-[Cys-(tMeBn(H-Asp-Asp-Cys-Ttds-AET))-Pro-Pro-Thr-Gln-Phe-Cys]-OH]			100 to 794	10 to 79.4
CCCCCC(=O)N[C@H]1CSCc2cc(CSCCNC(=O)CN3CCN(CC(=O)O)CCN(CC(=O)O)CCN(CC(=O)O)CC3)cc(c2)CSC[C@@H](C(N)=O)NC(=O)[C@H](Cc2ccccc2)NC(=O)[C@H](CCC(N)=O)NC(=O)[C@H]([C@@H](C)O)NC(=O)[C@@H]2CCCN2C(=O)CN(C)C1=O [3BP-3744, Hex-[Cys(tMeBn(DOTA-AET))-Nmg-Pro-Thr-Gln-Phe-Cys]-NH2] (Hexanoyl-C[Sar]PTQFC-NH2; linker 1-7 via TBMB(SCH2CH2NH-DOTA))			< 10	< 10
CCCCCC(=O)N[C@H]1CSCc2cncc(c2)CSC[C@@H](C(=O)N[C@@H](CC(=O)O)C(N)=O)NC(=O)[C@H](Cc2ccccc2)NC(=O)[C@H](CCC(N)=O)NC(=O)[C@H]([C@@H](C)O)NC(=O)[C@@H]2CCCN2C(=O)[C@@H]2CCCN2C1=O [3BP-3519, Hex-[Cys(3Lut)-Pro-Pro-Thr-Gln-Phe-Cys]-Asp-NH2] (Hexanoyl-CPPTQFCD-NH2; linker 1-7 via Pyridine(3,5-bisCH2))	< 10	< 10		
CCCCCC(=O)N[C@H]1CSCc2cc(CSCCNC(=O)CCOCCOCCOCCOCCOCCOCCNC(=O)C(CNCCN)CNCCN)cc(c2)CSC[C@@H](C(=O)O)NC(=O)[C@H](Cc2ccccc2)NC(=O)[C@H](CCC(N)=O)NC(=O)[C@H]([C@@H](C)O)NC(=O)[C@@H]2CCCN2C(=O)[C@@H]2CCCN2C1=O [3BP-4300, Hex-[Cys-(tMeBn(N4Ac-PEG6-AET))-Pro-Pro-Thr-Gln-Phe-Cys]-OH]			10 to 79.4	< 10
CCCCCC(=O)N[C@H]1CSCc2cccc(c2)CSC[C@@H](C(=O)N[C@@H](CC(=O)O)C(N)=O)NC(=O)[C@H](Cc2ccccc2)NC(=O)[C@H](CCC(=O)NCCCNC(=O)COCCOCCNC(=O)CN2CCN(CC(=O)O)CCN(CC(=O)O)CCN(CC(=O)O)CC2)NC(=O)[C@H]([C@@H](C)O)NC(=O)[C@@H]2CCCN2C(=O)[C@@H]2CCCN2C1=O [3BP-3473, Hex-[Cys(3MeBn)-Pro-Pro-Thr-Glu(NH-Apr-O2O-DOTA')-Phe-Cys]-Asp-NH2] (Hexanoyl-CPPTE(NH(CH2)3NH(O2Oc(DOTA)))FCD-NH2; linker 1-7 via mXylylene)	100 to 794	100 to 794		

The next lines start with results.

IC50 ([1]; WI-38 fibroblasts) [nM]	IC50 (Human recombinant FAP; recombinant human FAP) [nM]	Structure (SMILES)	IC50 [1] [nM]	IC50 (Human recombinant FAP) [nM]
< 10	10 to 79.4	CSCC[C@H](NC(C)=O)C(=O)N[C@H]1CSCc2cccc(c2)CSC[C@@H](C(=O)N[C@@H](CC(=O)O)C(=O)N[C@@H](C)C(=O)N[C@@H](Cc2ccccc2)C(=O)N[C@@H](CCCNC(=N)N)C(=O)N[C@@H](CC(=O)O)C(N)=O)NC(=O)[C@H](Cc2ccccc2)NC(=O)[C@H](CCC(=O)O)NC(=O)[C@H]([C@@H](C)O)NC(=O)[C@@H]2CCCN2C(=O)[C@@H]2CCCN2C1=O [3BP-3195, Ac-Met-[Cys(3MeBn)-Pro-Pro-Thr-Glu-Phe-Cys]-Asp-Ala-Phe-Arg-Asp-NH2] (Ac-MCPPTEFCDAFRD-NH2; linker 2-8 via mXylylene)		
> 1000	> 1000	CCCCCC(=O)N[C@H]1CSCc2cccc(c2)CSC[C@@H](C(=O)N[C@@H](CC(=O)O)C(N)=O)NC(=O)[C@H](Cc2ccccc2)NC(=O)[C@H](CCC(=O)NCCCNC(=O)CN2CCN(CC(=O)O)CCN(CC(=O)O)CCN(CC(=O)O)CC2)NC(=O)[C@H]([C@@H](C)O)NC(=O)[C@@H]2CCCN2C(=O)[C@@H]2CCCN2C1=O [3BP-3472, Hex-[Cys(3MeBn)-Pro-Pro-Thr-Glu(NH-Apr-DOTA')-Phe-Cys]-Asp-NH2] (Hexanoyl-CPPTE(NH(CH2)3NHDOTA)FCD-NH2; linker 1-7 via mXylylene)		
